Source: patent publication US20260356819A1, “OXOISOINDOLINYL-SUBSTITUTED […] DERIVATIVE AND USE THEREOF” (GLUETACS THERAPEUTICS (SHANGHAI) CO., LTD., priority 2023, published 2026)

Legend:
WEE1 = target: T1, WEE1 (Homo sapiens, UniProt P30291+Q96SW2); test: Western blot degradation of WEE1 in hPBMCs (24 h); assay type: cell-based; conditions: compounds at 50 nM and 500 nM
T1 construct: The supernatant was aspirated as the extracted total cell protein; endogenous in cells; host or cells: human peripheral blood mononuclear cells (hPBMCs)
How it was run: (§1)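 Western blot densitometry after 24 h treatment of human PBMCs (1×10^6 cells/mL) with 50 nM or 500 nM compound. Remaining target (%) = band intensity over internal-control band, normalized to DMSO; degradation = 1 − remaining; DC50 is the concentration giving half the DMSO band signal.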

CK1α = target: T2, CK1α (Homo sapiens, UniProt P48729+Q96SW2); test: Western blot degradation of CK1α in hPBMCs (24 h); assay type: cell-based; conditions: compounds at 50 nM and 500 nM
T2 construct: The supernatant was aspirated as the extracted total cell protein; endogenous in cells; host or cells: human peripheral blood mononuclear cells (hPBMCs)
How it was run: as §1

IKZF3 = target: T3, IKZF3 (Homo sapiens, UniProt Q96SW2+Q9UKT9); test: Western blot degradation of IKZF3 in hPBMCs (24 h); assay type: cell-based; conditions: compounds at 50 nM and 500 nM
T3 construct: The supernatant was aspirated as the extracted total cell protein; endogenous in cells; host or cells: human peripheral blood mononuclear cells (hPBMCs)
How it was run: as §1

IKZF2 = target: T4, IKZF2 (Homo sapiens, UniProt Q96SW2+Q9UKS7); test: Western blot degradation of IKZF2 in hPBMCs (24 h); assay type: cell-based; conditions: compounds at 50 nM and 500 nM
T4 construct: The supernatant was aspirated as the extracted total cell protein; endogenous in cells; host or cells: human peripheral blood mononuclear cells (hPBMCs)
How it was run: as §1

MGC803 cells = test: Inhibition of proliferation of gastric cancer cells MGC803 (cell viability assay, 96 h); assay type: cell-based, human; conditions: read-out: inhibitory activity (IC50) against tumor cells proliferation, MGC803
Description: (§2) The tumor cells used herein were cultured in a cell culture medium listed in table 2 at 37 °C in an incubator with 5% CO2. Prior to experimentation, all cell lines used were correctly identified by STR profiling, and tested negative for Mycoplasma contamination using a Mycoplasma detection kit through routine screenings.
(§3) The IC50 values of the compounds of the present disclosure (including the compounds in Table 1, and Examples 1-498) were determined using the CellTiter-Meiluncell Luminescent Cell Viability Assay Kit from Dalian Meilun Biotech Co., Ltd. The detailed procedure is as follows: Tumor cells were seeded in 96-well cell culture plates at the densities specified in Table 3. On the following day, the test compounds of the present disclosure were subjected to serial dilution. […] Subsequently, 0.5 μL of the test compound dilution was transferred into the 96-well plate containing the cells, with each well containing 100 μL of cell culture medium. […] Into the 96-well plate, the diluted test compounds and corresponding detection reagents were added, resulting in final test compound concentrations of 500 nM and 10 nM, respectively. The experimental procedure is described below using the diluted 2 μM test compound as an example.
(§4) 0.5 μL of the aforementioned diluted compound of the present disclosure (including the compounds in Table 1, and Examples 1-498) was added to the seeded cells in 100 μL of medium, yielding a final test compound concentration of 10 nM. After the cells were treated with the compounds of the present disclosure for a specified period, the cell viability assay reagent was added to the culture medium according to the kit's instructions to determine cell viability. […] All controls were treated using the same procedure as the compounds of the present disclosure. The growth inhibition curves for the compounds of the present disclosure were plotted using Prism GraphPad software, and the IC50 values were calculated therefrom.

MM.1S cells = test: Inhibition of proliferation of multiple myeloma cells MM.1S (cell viability assay, 96 h); assay type: cell-based, human; conditions: read-out: inhibitory activity (IC50) against tumor cells proliferation, MM.1S
IKZF1 = target: T5, IKZF1 (Homo sapiens, UniProt Q13422+Q96SW2); test: Western blot degradation of IKZF1 in hPBMCs (24 h); assay type: cell-based; conditions: compounds at 50 nM and 500 nM
T5 construct: The supernatant was aspirated as the extracted total cell protein; endogenous in cells; host or cells: human peripheral blood mononuclear cells (hPBMCs)
How it was run: as §1

GSPT1 = target: T6, GSPT1 (Homo sapiens, UniProt P15170+Q96SW2); test: Western blot degradation of GSPT1 in hPBMCs (24 h); assay type: cell-based; conditions: compounds at 50 nM and 500 nM
T6 construct: The supernatant was aspirated as the extracted total cell protein; endogenous in cells; host or cells: human peripheral blood mononuclear cells (hPBMCs)
How it was run: as §1

Jurkat cells = test: Inhibition of proliferation of T lymphocytic leukemia cells Jurkat (cell viability assay, 96 h); assay type: cell-based, human; conditions: read-out: inhibitory activity (IC50) against tumor cells proliferation, Jurkat
MV-4-11 cells = test: Inhibition of proliferation of myeloid monocytic leukemia cells MV-4-11 (cell viability assay, 96 h); assay type: cell-based, human; conditions: read-out: inhibitory activity (IC50) against tumor cells proliferation, MV-4-11
Description: as §2, §3, §4

T4 sequence (Q9UKS7 whole entry): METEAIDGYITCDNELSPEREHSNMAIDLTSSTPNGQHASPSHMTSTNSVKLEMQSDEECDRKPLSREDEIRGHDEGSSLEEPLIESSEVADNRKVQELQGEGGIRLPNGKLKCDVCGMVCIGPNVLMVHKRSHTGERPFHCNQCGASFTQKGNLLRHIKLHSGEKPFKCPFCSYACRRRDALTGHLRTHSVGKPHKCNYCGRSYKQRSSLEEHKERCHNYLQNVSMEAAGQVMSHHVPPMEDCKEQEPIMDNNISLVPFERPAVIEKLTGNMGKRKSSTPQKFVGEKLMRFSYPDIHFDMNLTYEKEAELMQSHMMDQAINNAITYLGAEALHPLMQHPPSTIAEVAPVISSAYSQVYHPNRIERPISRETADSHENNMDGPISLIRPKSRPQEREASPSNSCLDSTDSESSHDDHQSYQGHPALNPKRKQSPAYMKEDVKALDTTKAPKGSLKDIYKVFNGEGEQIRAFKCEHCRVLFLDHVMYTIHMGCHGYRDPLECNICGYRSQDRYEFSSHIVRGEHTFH
T4 sequence (Q96SW2 whole entry): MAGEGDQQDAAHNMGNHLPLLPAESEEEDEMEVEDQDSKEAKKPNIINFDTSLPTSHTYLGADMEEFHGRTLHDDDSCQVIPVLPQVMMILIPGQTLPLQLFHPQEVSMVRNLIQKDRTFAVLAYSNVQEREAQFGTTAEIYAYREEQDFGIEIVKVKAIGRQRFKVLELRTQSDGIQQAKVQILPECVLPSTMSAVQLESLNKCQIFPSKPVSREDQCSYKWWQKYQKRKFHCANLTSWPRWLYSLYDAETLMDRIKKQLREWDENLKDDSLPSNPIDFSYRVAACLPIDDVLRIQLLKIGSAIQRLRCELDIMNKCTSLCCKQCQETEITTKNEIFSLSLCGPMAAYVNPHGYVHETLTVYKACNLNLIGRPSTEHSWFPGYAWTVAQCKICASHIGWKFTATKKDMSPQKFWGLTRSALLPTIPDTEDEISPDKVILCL
T4 sequence (Q16531 whole entry partner): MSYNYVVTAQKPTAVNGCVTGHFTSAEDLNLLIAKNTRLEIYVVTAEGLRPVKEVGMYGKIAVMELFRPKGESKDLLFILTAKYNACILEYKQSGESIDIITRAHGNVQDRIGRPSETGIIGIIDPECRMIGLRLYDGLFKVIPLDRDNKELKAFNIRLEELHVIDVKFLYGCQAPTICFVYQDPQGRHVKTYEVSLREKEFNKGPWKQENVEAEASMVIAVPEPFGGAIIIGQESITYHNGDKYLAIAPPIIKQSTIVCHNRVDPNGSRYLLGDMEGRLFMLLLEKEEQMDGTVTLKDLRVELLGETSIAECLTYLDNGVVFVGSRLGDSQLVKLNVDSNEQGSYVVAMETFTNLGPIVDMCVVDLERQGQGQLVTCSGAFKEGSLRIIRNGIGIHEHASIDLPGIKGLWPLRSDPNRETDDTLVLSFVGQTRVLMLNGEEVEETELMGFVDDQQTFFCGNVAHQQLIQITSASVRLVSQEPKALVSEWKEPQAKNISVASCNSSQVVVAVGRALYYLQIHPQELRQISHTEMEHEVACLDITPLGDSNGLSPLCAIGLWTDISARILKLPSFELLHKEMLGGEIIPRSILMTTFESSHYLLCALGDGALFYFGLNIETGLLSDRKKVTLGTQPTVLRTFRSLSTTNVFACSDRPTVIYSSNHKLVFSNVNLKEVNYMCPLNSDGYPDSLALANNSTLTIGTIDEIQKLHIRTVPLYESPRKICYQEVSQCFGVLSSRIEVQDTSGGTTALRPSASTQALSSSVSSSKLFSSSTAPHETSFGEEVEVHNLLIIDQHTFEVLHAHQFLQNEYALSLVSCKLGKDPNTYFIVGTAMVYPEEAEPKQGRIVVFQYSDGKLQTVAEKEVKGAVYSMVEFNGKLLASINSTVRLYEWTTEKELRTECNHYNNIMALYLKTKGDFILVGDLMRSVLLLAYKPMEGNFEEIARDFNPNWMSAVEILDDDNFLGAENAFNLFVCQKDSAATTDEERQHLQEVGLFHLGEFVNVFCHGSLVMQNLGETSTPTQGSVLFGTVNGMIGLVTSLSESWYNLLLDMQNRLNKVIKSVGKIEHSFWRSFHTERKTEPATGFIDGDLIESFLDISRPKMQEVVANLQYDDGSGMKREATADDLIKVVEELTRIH
T1 sequence (P30291 whole entry): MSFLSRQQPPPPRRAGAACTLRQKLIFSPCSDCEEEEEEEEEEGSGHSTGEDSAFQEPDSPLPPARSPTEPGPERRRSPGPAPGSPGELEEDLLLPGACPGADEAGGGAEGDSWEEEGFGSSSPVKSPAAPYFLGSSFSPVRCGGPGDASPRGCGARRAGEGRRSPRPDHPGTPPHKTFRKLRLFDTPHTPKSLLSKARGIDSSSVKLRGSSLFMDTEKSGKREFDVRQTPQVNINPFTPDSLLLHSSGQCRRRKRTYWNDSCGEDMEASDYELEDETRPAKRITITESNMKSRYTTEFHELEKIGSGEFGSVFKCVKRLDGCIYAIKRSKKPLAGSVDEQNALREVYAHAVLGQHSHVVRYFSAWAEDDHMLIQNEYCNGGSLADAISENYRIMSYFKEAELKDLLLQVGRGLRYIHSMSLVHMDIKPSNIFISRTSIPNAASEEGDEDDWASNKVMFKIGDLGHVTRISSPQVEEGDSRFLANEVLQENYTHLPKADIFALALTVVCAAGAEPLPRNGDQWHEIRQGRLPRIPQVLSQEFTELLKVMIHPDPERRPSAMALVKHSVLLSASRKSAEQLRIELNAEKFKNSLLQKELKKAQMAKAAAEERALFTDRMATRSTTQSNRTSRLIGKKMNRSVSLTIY
T1 sequence (Q96SW2 whole entry): as the sequence (Q96SW2 whole entry) above
T1 sequence (Q16531 whole entry partner): as the sequence (Q16531 whole entry partner) above
T6 sequence (P15170 whole entry): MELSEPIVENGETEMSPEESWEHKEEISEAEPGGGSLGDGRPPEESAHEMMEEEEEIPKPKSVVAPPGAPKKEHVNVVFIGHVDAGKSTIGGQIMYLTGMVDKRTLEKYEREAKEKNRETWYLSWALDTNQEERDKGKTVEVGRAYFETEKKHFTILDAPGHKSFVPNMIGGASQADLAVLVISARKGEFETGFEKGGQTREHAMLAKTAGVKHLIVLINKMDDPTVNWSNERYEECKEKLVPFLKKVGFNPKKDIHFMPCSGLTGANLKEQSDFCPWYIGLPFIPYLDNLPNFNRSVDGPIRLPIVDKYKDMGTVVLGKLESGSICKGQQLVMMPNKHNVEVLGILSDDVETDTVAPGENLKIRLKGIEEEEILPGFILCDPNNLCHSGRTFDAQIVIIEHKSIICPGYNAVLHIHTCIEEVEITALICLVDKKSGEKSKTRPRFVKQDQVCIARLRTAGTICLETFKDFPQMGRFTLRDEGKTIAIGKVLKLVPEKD
T6 sequence (Q96SW2 whole entry): as the sequence (Q96SW2 whole entry) above
T6 sequence (Q16531 whole entry partner): as the sequence (Q16531 whole entry partner) above
T5 sequence (Q13422 whole entry): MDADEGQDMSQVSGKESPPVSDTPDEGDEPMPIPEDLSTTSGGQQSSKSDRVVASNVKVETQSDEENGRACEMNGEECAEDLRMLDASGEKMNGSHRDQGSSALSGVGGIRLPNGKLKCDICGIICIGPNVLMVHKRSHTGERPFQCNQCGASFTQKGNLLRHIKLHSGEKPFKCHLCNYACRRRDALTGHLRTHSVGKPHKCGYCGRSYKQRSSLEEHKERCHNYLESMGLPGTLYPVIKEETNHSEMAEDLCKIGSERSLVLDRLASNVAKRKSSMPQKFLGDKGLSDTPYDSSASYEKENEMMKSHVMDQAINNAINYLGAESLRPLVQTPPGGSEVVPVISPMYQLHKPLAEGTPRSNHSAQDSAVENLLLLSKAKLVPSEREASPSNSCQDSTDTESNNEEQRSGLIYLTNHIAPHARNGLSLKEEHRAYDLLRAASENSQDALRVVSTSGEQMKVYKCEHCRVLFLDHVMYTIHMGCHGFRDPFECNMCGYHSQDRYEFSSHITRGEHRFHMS
T5 sequence (Q96SW2 whole entry): as the sequence (Q96SW2 whole entry) above
T5 sequence (Q16531 whole entry partner): as the sequence (Q16531 whole entry partner) above
T2 sequence (P48729 whole entry): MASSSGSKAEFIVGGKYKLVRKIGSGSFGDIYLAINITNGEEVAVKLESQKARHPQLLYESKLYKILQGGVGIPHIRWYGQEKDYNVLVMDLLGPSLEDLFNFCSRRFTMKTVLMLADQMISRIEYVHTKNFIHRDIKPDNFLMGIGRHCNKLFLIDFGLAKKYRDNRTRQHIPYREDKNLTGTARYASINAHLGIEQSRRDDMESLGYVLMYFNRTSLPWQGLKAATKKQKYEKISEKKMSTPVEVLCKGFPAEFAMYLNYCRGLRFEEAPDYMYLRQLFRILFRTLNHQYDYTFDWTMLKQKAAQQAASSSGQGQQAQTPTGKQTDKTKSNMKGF
T2 sequence (Q96SW2 whole entry): as the sequence (Q96SW2 whole entry) above
T2 sequence (Q16531 whole entry partner): as the sequence (Q16531 whole entry partner) above

Structure (SMILES) | WEE1 substrate protein remaining % (WEE1) | CK1α substrate protein remaining % (CK1α) | IKZF3 substrate protein remaining % (IKZF3) | IKZF2 substrate protein remaining % (IKZF2) | IC50 (MGC803 cells) [nM] | IC50 (MM.1S cells) [nM] | IKZF1 substrate protein remaining % (IKZF1) | GSPT1 substrate protein remaining % (GSPT1) | IC50 (Jurkat cells) [nM] | IC50 (MV-4-11 cells) [nM]
O=C1CCN(N2Cc3cc(CN4CCN(c5cccc(Cl)c5Cl)CC4)ccc3C2=O)C(=O)N1 [GT-04853, 1-(5-((4-(2,3-dichlorophenyl)piperazin-1-yl)methyl)-1-oxoisoindolin-2-yl)dihydropyrimidine-2,4(1H,3H)-dione] | A (0% ≤ substrate protein remaining % ≤80%) | B (80%< substrate protein remaining % ≤100%) | B (80%< substrate protein remaining % ≤100%) | A (0% ≤ substrate protein remaining % ≤80%) | 500 to 1000 | 100 to 300 | A (0% ≤ substrate protein remaining % ≤80%) | A (0% ≤ substrate protein remaining % ≤80%) |  | 
O=C1CCN(N2Cc3cc(CN4CCN(c5cccc6sccc56)CC4)ccc3C2=O)C(=O)N1 [GT-04866, 1-(5-((4-(benzo[b]thiophen-4-yl)piperazin-1-yl)methyl)-1-oxoisoindolin-2-yl)dihydropyrimidine-2,4(1H,3H)-dione] | A (0% ≤ substrate protein remaining % ≤80%) | B (80%< substrate protein remaining % ≤100%) | B (80%< substrate protein remaining % ≤100%) | B (80%< substrate protein remaining % ≤100%) | 300 to 500 | 100 to 300 | A (0% ≤ substrate protein remaining % ≤80%) | A (0% ≤ substrate protein remaining % ≤80%) | 300 to 500 | 
O=C1CCN(N2Cc3cc(CN4CC=C(c5cccs5)CC4)ccc3C2=O)C(=O)N1 [GT-04868, 1-(1-oxo-5-((4-(thiophen-2-yl)-3,6-dihydropyridin-1(2H)-yl)methyl)isoindolin-2-yl)dihydropyrimidine-2,4(1H,3H)-dione] | A (0% ≤ substrate protein remaining % ≤80%) | A (0% ≤ substrate protein remaining % ≤80%) | B (80%< substrate protein remaining % ≤100%) | B (80%< substrate protein remaining % ≤100%) | 300 to 500 | 100 to 300 | A (0% ≤ substrate protein remaining % ≤80%) | A (0% ≤ substrate protein remaining % ≤80%) | 300 to 500 | 
Cc1ccc(C2=CCN(Cc3ccc4c(c3)CN(N3CCC(=O)NC3=O)C4=O)CC2)s1 [GT-04869, 1-(5-((4-(5-methylthiophen-2-yl)-3,6-dihydropyridin-1(2H)-yl)methyl)-1-oxoisoindolin-2-yl)dihydropyrimidine-2,4(1H,3H)-dione] | A (0% ≤ substrate protein remaining % ≤80%) | B (80%< substrate protein remaining % ≤100%) | A (0% ≤ substrate protein remaining % ≤80%) | A (0% ≤ substrate protein remaining % ≤80%) | 300 to 500 | 50 to 100 | A (0% ≤ substrate protein remaining % ≤80%) | A (0% ≤ substrate protein remaining % ≤80%) | 300 to 500 | 
Cc1ccsc1C1=CCN(Cc2ccc3c(c2)CN(N2CCC(=O)NC2=O)C3=O)CC1 [GT-04870, 1-(5-((4-(3-methylthiophen-2-yl)-3,6-dihydropyridin-1(2H)-yl)methyl)-1-oxoisoindolin-2-yl)dihydropyrimidine-2,4(1H,3H)-dione] | A (0% ≤ substrate protein remaining % ≤80%) | B (80%< substrate protein remaining % ≤100%) | A (0% ≤ substrate protein remaining % ≤80%) | A (0% ≤ substrate protein remaining % ≤80%) | 100 to 300 | 50 to 100 | A (0% ≤ substrate protein remaining % ≤80%) | A (0% ≤ substrate protein remaining % ≤80%) | 100 to 300 | 
O=C1CCN(N2Cc3cc(CN4CC=C(c5ccsc5)CC4)ccc3C2=O)C(=O)N1 [GT-04871, 1-(1-oxo-5-((4-(thiophen-3-yl)-3,6-dihydropyridin-1(2H)-yl)methyl)isoindolin-2-yl)dihydropyrimidine-2,4(1H,3H)-dione] | A (0% ≤ substrate protein remaining % ≤80%) | B (80%< substrate protein remaining % ≤100%) | B (80%< substrate protein remaining % ≤100%) | B (80%< substrate protein remaining % ≤100%) | 300 to 500 | 100 to 300 | A (0% ≤ substrate protein remaining % ≤80%) | A (0% ≤ substrate protein remaining % ≤80%) | 300 to 500 | 
O=C1CCN(N2Cc3cc(CN4CCN(C(c5ccccc5)c5ccccn5)CC4)ccc3C2=O)C(=O)N1 (stereo not drawn) [GT-04890, 1-(1-oxo-5-((4-(phenyl(pyridin-2-yl)methyl)piperazin-1-yl)methyl)isoindolin-2-yl)dihydropyrimidine-2,4(1H,3H)-dione] | B (80%< substrate protein remaining % ≤100%) | B (80%< substrate protein remaining % ≤100%) | B (80%< substrate protein remaining % ≤100%) | A (0% ≤ substrate protein remaining % ≤80%) | 500 to 1000 | 100 to 300 | A (0% ≤ substrate protein remaining % ≤80%) | A (0% ≤ substrate protein remaining % ≤80%) |  | 
O=C1CCN(N2Cc3cc(CN4CCC(c5cccc(F)c5Cl)CC4)ccc3C2=O)C(=O)N1 [GT-06894, 1-(5-((4-(2-chloro-3-fluorophenyl)piperidin-1-yl)methyl)-1-oxoisoindolin-2-yl)dihydropyrimidine-2,4(1H,3H)-dione] | B (80%< substrate protein remaining % ≤100%) | B (80%< substrate protein remaining % ≤100%) | B (80%< substrate protein remaining % ≤100%) | B (80%< substrate protein remaining % ≤100%) |  |  | A (0% ≤ substrate protein remaining % ≤80%) | A (0% ≤ substrate protein remaining % ≤80%) | 500 to 1000 | 300 to 500
